Calls of active or inactive are those of the source. No cut-off for these calls is given here.
Assays:
NCI-H460 = assay: Antiproliferative activity against human NCI-H460 cells by CCK8 assay
MDA-MB-231 = assay: Antiproliferative activity against human MDA-MB-231 cells by CCK8 assay
[1] = Antiproliferative activity against human MCF-10A cells by CCK8 assay; format: toxicity, cell-based
[2] = Stability of compound assessed as carboxylesterase (unknown origin)-mediated drug hydrolysis incubated for 4 hrs by RP-HPLC analysis; format: ADME; conditions: human
Tubulin (Homo sapiens) [3] = biological target: T1, Tubulin (Homo sapiens) (UniProt P68371+Q9H4B7+P0DPH7+P68366+Q13509+Q71U36+P04350+Q3ZCM7+P07437+P68363+Q9BQE3+Q6PEY2+Q13885+Q9BVA1+Q9BUF5); assay: Disruption of microtubule network in human A549 cells assessed as cell disorganisation at 2.5 to 5 uM incubated for 24 hrs by immunofluorescence based analysis; conditions: dose 2.5-5 µM
Tubulin (Homo sapiens) [4] = biological target: T1, Tubulin (Homo sapiens); assay: Disruption of microtubule network in human A549 cells assessed as contraction towards cell border at 2.5 to 5 uM incubated for 24 hrs by immunofluorescence based analysis; conditions: dose 2.5-5 µM
Stromelysin-1 = Stromelysin-1 (Homo sapiens, UniProt P08254); assay: Inhibition of MMP-3 (unknown origin) using fluorogenic-McaPro-Leu-Gly-Leu-Dpa-Ala-Arg-NH2 as substrate
Chain of Stromelysin-1 (P08254 whole entry): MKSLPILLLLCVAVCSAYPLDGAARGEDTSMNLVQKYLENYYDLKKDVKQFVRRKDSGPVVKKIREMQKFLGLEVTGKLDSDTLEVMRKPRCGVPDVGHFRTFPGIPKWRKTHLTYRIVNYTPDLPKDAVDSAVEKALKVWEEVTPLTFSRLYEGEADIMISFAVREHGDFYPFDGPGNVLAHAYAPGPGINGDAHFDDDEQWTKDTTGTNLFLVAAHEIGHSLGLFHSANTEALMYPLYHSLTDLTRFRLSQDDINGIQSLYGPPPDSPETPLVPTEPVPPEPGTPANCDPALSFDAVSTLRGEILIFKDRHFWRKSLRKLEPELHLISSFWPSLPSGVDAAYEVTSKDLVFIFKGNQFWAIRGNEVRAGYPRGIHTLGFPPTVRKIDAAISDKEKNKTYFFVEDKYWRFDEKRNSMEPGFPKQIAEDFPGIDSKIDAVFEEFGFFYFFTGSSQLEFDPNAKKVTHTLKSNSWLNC

A549 [5] = assay: Anti-migration activity in human A549 cells assessed as migration rate at 0.5 uM incubated for 24 hrs by wound healing assay (reference value: 73.94 %); format: functional
A549 [6] = assay: Anti-migration activity in human A549 cells assessed as migration rate at 0.25 uM incubated for 24 hrs by wound healing assay (reference value: 73.94 %); format: functional
A549 [7] = assay: Downregulation of NF-kappaB p65 phosphorylation in TNF-alpha-treated human A549 cells by Western blot analysis; format: functional, cell-based
A549 [8] = assay: Downregulation of IKK-beta phosphorylation in TNF-alpha-treated human A549 cells by Western blot analysis; format: functional, cell-based
A549 [9] = assay: Induction of apoptosis in human A549 cells assessed as viable cells at 0.5 uM incubated for 24 hrs by Annexin V-FITC/PI staining based flow cytometry (reference value: 95.82 %); format: functional; conditions: read-out: Activity
A549 [10] = assay: Induction of apoptosis in human A549 cells assessed as early apoptotic cells at 0.5 uM incubated for 24 hrs by Annexin V-FITC/PI staining based flow cytometry (reference value: 3.04 %); format: functional
A549 [11] = assay: Induction of apoptosis in human A549 cells assessed as necrotic cells at 0.5 uM incubated for 24 hrs by Annexin V-FITC/PI staining based flow cytometry (reference value: 0.13 %); format: functional
A549 [12] = assay: Induction of apoptosis in human A549 cells assessed as viable cells at 0.25 uM incubated for 24 hrs by Annexin V-FITC/PI staining based flow cytometry (reference value: 95.82 %); format: functional; conditions: read-out: Activity
A549 [13] = assay: Induction of apoptosis in human A549 cells assessed as early apoptotic cells at 0.25 uM incubated for 24 hrs by Annexin V-FITC/PI staining based flow cytometry (reference value: 3.04 %); format: functional
A549 [14] = assay: Induction of apoptosis in human A549 cells assessed as late apoptotic cells at 0.25 uM incubated for 24 hrs by Annexin V-FITC/PI staining based flow cytometry (reference value: 1.01 %); format: functional
A549 [15] = assay: Induction of cell cycle arrest in human A549 cells assessed as accumulation at G1 phase at 0.5 uM incubated for 24 hrs by PI staining based flow cytometry (reference value: 58.67 %); format: functional
A549 [16] = assay: Induction of cell cycle arrest in human A549 cells assessed as accumulation at G2 phase at 0.5 uM incubated for 24 hrs by PI staining based flow cytometry (reference value: 3.37 %); format: functional
A549 [17] = assay: Induction of cell cycle arrest in human A549 cells assessed as accumulation at S phase at 0.5 uM incubated for 24 hrs by PI staining based flow cytometry (reference value: 37.95 %); format: functional
A549 [18] = assay: Induction of cell cycle arrest in human A549 cells assessed as accumulation at G2 phase at 0.25 uM incubated for 24 hrs by PI staining based flow cytometry (reference value: 3.37 %); format: functional
A549 [19] = assay: Induction of cell cycle arrest in human A549 cells assessed as decrease in cyclin B1 by Western blot analysis; format: functional, cell-based
A549 [20] = assay: Induction of cell cycle arrest in human A549 cells assessed as decrease in cdc2 by Western blot analysis; format: functional, cell-based
A549 [21] = assay: Induction of mitochondrial fragmentation in human A549 cells assessed as increase in green fluorescence at 0.5 uM incubated for 24 hrs by JC-1 dye based analysis; format: functional, cell-based
A549 [22] = assay: Induction of mitochondrial membrane potential loss in human A549 cells at 0.5 uM incubated for 24 hrs by JC-1 dye based analysis (reference value: 3.14 %); format: functional
A549 [23] = assay: Induction of mitochondrial membrane potential loss in human A549 cells at 0.25 uM incubated for 24 hrs by JC-1 dye based analysis (reference value: 3.14 %); format: functional
A549 [24] = assay: Induction of intracellular ROS accumulation in human A549 cells assessed as increase in green fluorescence incubated for 24 hrs by DCFH-DA dye based confocal microscopy; format: functional, cell-based
A549 [25] = assay: Induction of intracellular ROS accumulation in human A549 cells at 0.25 uM incubated for 24 hrs by DCFH-DA dye based flow cytometry (reference value: 4.96 %); format: functional
A549 [26] = assay: Induction of DNA damage in human A549 cells assessed as increase in gamma-H2AX level at 0.5 uM incubated for 24 hrs by immunofluorescence based analysis; format: functional, cell-based
A549 [27] = assay: Induction of apoptosis in human A549 cells assessed as decrease in Bcl-2 level at 0.5 uM incubated for 24 hrs by Western blot analysis; format: functional, cell-based
A549 [28] = assay: Antitumor activity against human A549 cells xenografted in BALB/c mouse at 20 mg/kg, ip for 3 weeks administered on every 2 days relative to control; format: functional; conditions: A549, 504 h, read-out: TGI
[29] = Toxicity in BALB/c mouse xenografted with human A549 cells assessed as body weight loss at 10 to 20 mg/kg, ip for 3 weeks administered on every 2 days; format: organism-based; conditions: in vivo, 504 h, dose 10-20 mg/kg
A549 [30] = assay: Antitumor activity against human A549 cells xenografted in BALB/c mouse assessed as decrease in Ki67 level at 20 mg/kg, ip for 3 weeks administered on every 2 days by IHC analysis; format: functional, organism-based
[31] = Toxicity in BALB/c mouse xenografted with human A549 cells assessed as effect on liver at 10 to 20 mg/kg, ip for 3 weeks administered on every 2 days by H and E staining based analysis; format: organism-based; conditions: in vivo, 504 h, dose 10-20 mg/kg
[32] = Toxicity in BALB/c mouse xenografted with human A549 cells assessed as effect on spleen at 10 to 20 mg/kg, ip for 3 weeks administered on every 2 days by H and E staining based analysis; format: organism-based; conditions: in vivo, 504 h, dose 10-20 mg/kg
[33] = Toxicity in BALB/c mouse xenografted with human A549 cells assessed as effect on kidney at 10 to 20 mg/kg, ip for 3 weeks administered on every 2 days by H and E staining based analysis; format: organism-based; conditions: in vivo, 504 h, dose 10-20 mg/kg
A549 [34] = assay: cells; conditions: Homo sapiens
Description: Antiproliferative activity against human A549 cells by CCK8 assay

Structure (SMILES): CCOP(=O)(OCC)C(Nc1ccc(CC(=O)Oc2cc(/C=C/C(=O)c3cc(OC)c(OC)c(OC)c3)ccc2OC)cc1)c1cccc([N+](=O)[O-])c1 (configuration not stated)
- IC50 (NCI-H460): 186 nM
- IC50 (MDA-MB-231): 296 nM
- IC50 [1]: 2710 nM
- Stability [2]: Unstable
- Activity (Tubulin (Homo sapiens) [3]): Active
- Activity (Tubulin (Homo sapiens) [4]): Active
- IC50 (Stromelysin-1): 36.5 µM
- Activity (A549 [5]): 25.17%
- Activity (A549 [6]): 62.35%
- Activity (A549 [7]): Active
- Activity (A549 [8]): Active
- viability at 0.5 µM (A549 [9]): 57.9%
- Activity (A549 [10]): 34.86%
- Activity (A549 [11]): 0.93%
- viability at 0.25 µM (A549 [12]): 79.9%
- Activity (A549 [13]): 16.18%
- Activity (A549 [14]): 3.62%
- Activity (A549 [15]): 15.53%
- Activity (A549 [16]): 81.23%
- Activity (A549 [17]): 3.19%
- Activity (A549 [18]): 37.79%
- Activity (A549 [19]): Active
- Activity (A549 [20]): Active
- Activity (A549 [21]): Active
- Activity (A549 [22]): 56.15%
- Activity (A549 [23]): 27.19%
- Activity (A549 [24]): Active
- Activity (A549 [25]): 36.07%
- Activity (A549 [26]): Active
- Activity (A549 [27]): Active
- inhibition in vivo at 20 mg/kg (A549 [28]): 74.7%
- Activity [29]: Non-toxic
- Activity (A549 [30]): Active
- Activity [31]: Non-toxic
- Activity [32]: Non-toxic
- Activity [33]: Non-toxic
- IC50 (A549 [34]): 154 nM

— ChEMBL document CHEMBL6153074, “Discovery of novel dual tubulin and MMPs inhibitors for the treatment of lung cancer and overcoming drug resistance” (Eur J Med Chem, 2025)
